According to patent US5773421A, “Antifungal fusacandins” (Abbott Laboratories, priority 1995, dated 1998):
Values after ≈ are worked out from the molar mass of the structure shown. Read-outs that look alike come from different tables or passages of the source.

Tests used:
Experiment in all cases: MIC by agar dilution method
Assay type in all cases: cell-based
[1] = test system: Candida albicans ATCC 10231
Experimental: (§1) Minimal inhibitory concentrations (MICs) were determined by an agar dilution method. The test compounds were serially diluted in MeOH and 0.2 mL portions were mixed with 20 mL of molten, cooled Sabouraud dextrose agar (Difco). Yeast cell inoculum was prepared by growing cultures on Sabouraud dextrose agar for 18 hours at 32° C. and suspending the cells in phosphate buffered saline. Filamentous fungi were grown under the same conditions for 4 days to obtain spores. The inoculum level for all cultures was adjusted to 10^4 cells using a Petroff-Hauser cell counter. The glutarimide antifungal compounds cycloheximide or amphotericin B were used as a control. Inoculated test plates were incubated at 32° C. and examined after 20 hours.

[2] = test system: Candida albicans 579a; settings: read-out: MIC II
Experimental: as §1

[3] = test system: Candida albicans ATCC 62376
Experimental: as §1

[4] = test system: Candida albicans CCH 442; settings: CCH442; Table 6c, 3rd value column (head printed II); III Candida albicans CCH 442; agar dilution; read-out: MIC II
Experimental: as §1

[5] = test system: Candida albicans ATCC 38247
Experimental: as §1

[6] = ATCC10231, Table 6c, I Candida albicans ATCC 10231, agar dilution, read-out: MIC I
[7] = Table 6c, II Candida albicans 579a, agar dilution
[8] = ATCC62376, Table 6c, V Candida albicans ATCC 62376, agar dilution, read-out: MIC V
[9] = ATCC38247, Table 6c, IV Candida albicans ATCC 38247, agar dilution, read-out: MIC IV

| Compound | MIC [1, 6] | MIC [2, 7] | MIC [3, 8] | MIC [4] | MIC [5, 9] | MIC ([1]; Candida albicans, ATCC10231, read-out: MIC I) | MIC ([2]; Candida albicans, 579A) | MIC ([3]; Candida albicans, ATCC62376, read-out: MIC V) | MIC ([5]; Candida albicans, ATCC38247, read-out: MIC IV) |
| --- | --- | --- | --- | --- | --- | --- | --- | --- | --- |
| CCCCC/C=C/C=C/[C@@H](O)C/C=C/C=C/C(=O)O[C@@H]1[C@@H](O)[C@H](c2c(O)cc(O)cc2CO)O[C@H](CO)[C@H]1O[C@@H]1O[C@H](COC(=O)c2cccc(-c3ccc(-c4ccccc4)cc3)c2)[C@H](O)[C@H](O)[C@H]1O[C@@H]1O[C@H](CO)[C@H](O)[C@H](O)[C@H]1O [Example 34] | 6.25 µg/mL (≈ 5.53 µM) | 3.12 µg/mL (≈ 2.76 µM) | 3.12 µg/mL (≈ 2.76 µM) | 6.25 µg/mL (≈ 5.53 µM) | 6.25 µg/mL (≈ 5.53 µM) | – | – | – | – |
| CCCCC/C=C/C=C/[C@@H](O)C/C=C/C=C/C(=O)O[C@@H]1[C@@H](O)[C@H](c2c(O)cc(O)cc2CO)O[C@H](CO)[C@H]1O[C@@H]1O[C@H](COC(=O)c2ccc(-c3ccc4c(c3)OCO4)cc2)[C@H](O)[C@H](O)[C@H]1O[C@@H]1O[C@H](CO)[C@H](O)[C@H](O)[C@H]1O [Example 36] | 1.56 µg/mL (≈ 1.42 µM) | 0.78 µg/mL (≈ 0.711 µM) | 1.56 µg/mL (≈ 1.42 µM) | 1.56 µg/mL (≈ 1.42 µM) | 1.56 µg/mL (≈ 1.42 µM) | – | – | – | – |
| CCCCC/C=C/C=C/[C@@H](O)C/C=C/C=C/C(=O)O[C@@H]1[C@@H](O)[C@H](c2c(O)cc(O)cc2CO)O[C@H](CO)[C@H]1O[C@@H]1O[C@H](COC(=O)c2ccc(-c3ccc(OC(C)C)cc3)cc2)[C@H](O)[C@H](O)[C@H]1O[C@@H]1O[C@H](CO)[C@H](O)[C@H](O)[C@H]1O [Example 43] | 1.56 µg/mL (≈ 1.4 µM) | 0.78 µg/mL (≈ 0.702 µM) | 0.78 µg/mL (≈ 0.702 µM) | 0.78 µg/mL (≈ 0.702 µM) | 0.78 µg/mL (≈ 0.702 µM) | – | – | – | – |
| CCCCC/C=C/C=C/[C@@H](O)C/C=C/C=C/C(=O)O[C@@H]1[C@@H](O)[C@H](c2c(O)cc(O)cc2CO)O[C@H](CO)[C@H]1O[C@@H]1O[C@H](COC(=O)c2ccc(-c3ccccc3)cc2)[C@H](O)[C@H](O)[C@H]1O[C@@H]1O[C@H](CO)[C@H](O)[C@H](O)[C@H]1O [Example 30] | 0.78 µg/mL (≈ 0.741 µM) | 0.78 µg/mL (≈ 0.741 µM) | 0.78 µg/mL (≈ 0.741 µM) | 0.78 µg/mL (≈ 0.741 µM) | 1.56 µg/mL (≈ 1.48 µM) | – | – | – | – |
| C=CCOc1ccc2cc(C(=O)OC[C@H]3O[C@@H](O[C@H]4[C@H](OC(=O)/C=C/C=C/C[C@H](O)/C=C/C=C/CCCCC)[C@@H](O)[C@H](c5c(O)cc(O)cc5CO)O[C@@H]4CO)[C@H](O[C@@H]4O[C@H](CO)[C@H](O)[C@H](O)[C@H]4O)[C@@H](O)[C@H]3O)ccc2c1 [Example 23] | 12.5 µg/mL (≈ 11.5 µM) | 3.12 µg/mL (≈ 2.88 µM) | 6.25 µg/mL (≈ 5.77 µM) | 6.25 µg/mL (≈ 5.77 µM) | 6.25 µg/mL (≈ 5.77 µM) | – | – | – | – |
| CCCCC/C=C/C=C/[C@@H](O)C/C=C/C=C/C(=O)O[C@@H]1[C@@H](O)[C@H](c2c(O)cc(O)cc2CO)O[C@H](CO)[C@H]1O[C@@H]1O[C@H](COC(=O)c2ccc(CCCC)cc2)[C@H](O)[C@H](O)[C@H]1O[C@@H]1O[C@H](CO)[C@H](O)[C@H](O)[C@H]1O [Example 15] | 3.12 µg/mL (≈ 3.02 µM) | 0.78 µg/mL (≈ 0.755 µM) | 1.56 µg/mL (≈ 1.51 µM) | 3.12 µg/mL (≈ 3.02 µM) | 1.56 µg/mL (≈ 1.51 µM) | – | – | – | – |
| CCCCC/C=C/C=C/[C@@H](O)C/C=C/C=C/C(=O)O[C@@H]1[C@@H](O)[C@H](c2c(O)cc(O)cc2CO)O[C@H](CO)[C@H]1O[C@@H]1O[C@H](COC(=O)c2ccc3ccccc3c2)[C@H](O)[C@H](O)[C@H]1O[C@@H]1O[C@H](CO)[C@H](O)[C@H](O)[C@H]1O [Example 19] | 3.12 µg/mL (≈ 3.04 µM) | 0.78 µg/mL (≈ 0.759 µM) | 3.12 µg/mL (≈ 3.04 µM) | 1.56 µg/mL (≈ 1.52 µM) | 0.78 µg/mL (≈ 0.759 µM) | – | – | – | – |
| CCCCC/C=C/C=C/[C@@H](O)C/C=C/C=C/C(=O)O[C@@H]1[C@@H](O)[C@H](c2c(O)cc(O)cc2CO)O[C@H](CO)[C@H]1O[C@@H]1O[C@H](COC(=O)c2ccc(-c3ccc(OCCCCCCCC)cc3)cc2)[C@H](O)[C@H](O)[C@H]1O[C@@H]1O[C@H](CO)[C@H](O)[C@H](O)[C@H]1O [Example 38] | 25 µg/mL (≈ 21.2 µM) | 25 µg/mL (≈ 21.2 µM) | 12.5 µg/mL (≈ 10.6 µM) | 25 µg/mL (≈ 21.2 µM) | 50 µg/mL (≈ 42.3 µM) | – | – | – | – |
| CCCCC/C=C/C=C/[C@@H](O)C/C=C/C=C/C(=O)O[C@@H]1[C@@H](O)[C@H](c2c(O)cc(O)cc2CO)O[C@H](CO)[C@H]1O[C@@H]1O[C@H](COC(=O)c2ccc(-c3ccc(-c4ccccc4)cc3)cc2)[C@H](O)[C@H](O)[C@H]1O[C@@H]1O[C@H](CO)[C@H](O)[C@H](O)[C@H]1O [Example 33] | 1.56 µg/mL (≈ 1.38 µM) | 0.78 µg/mL (≈ 0.691 µM) | 0.78 µg/mL (≈ 0.691 µM) | 0.78 µg/mL (≈ 0.691 µM) | 3.12 µg/mL (≈ 2.76 µM) | – | – | – | – |
| CCCCC/C=C/C=C/[C@@H](O)C/C=C/C=C/C(=O)O[C@@H]1[C@@H](O)[C@H](c2c(O)cc(O)cc2CO)O[C@H](CO)[C@H]1O[C@@H]1O[C@H](COC(=O)c2ccc(-c3ccc4ccccc4c3)cc2)[C@H](O)[C@H](O)[C@H]1O[C@@H]1O[C@H](CO)[C@H](O)[C@H](O)[C@H]1O [Example 29] | 1.56 µg/mL (≈ 1.41 µM) | 0.78 µg/mL (≈ 0.707 µM) | 1.56 µg/mL (≈ 1.41 µM) | 1.56 µg/mL (≈ 1.41 µM) | 1.56 µg/mL (≈ 1.41 µM) | – | – | – | – |
| CCCCC/C=C/C=C/[C@@H](O)C/C=C/C=C/C(=O)O[C@@H]1[C@@H](O)[C@H](c2c(O)cc(O)cc2CO)O[C@H](CO)[C@H]1O[C@@H]1O[C@H](COC(=O)c2ccc(Oc3ccccc3)cc2)[C@H](O)[C@H](O)[C@H]1O[C@@H]1O[C@H](CO)[C@H](O)[C@H](O)[C@H]1O [Example 31] | 3.12 µg/mL (≈ 2.92 µM) | 1.56 µg/mL (≈ 1.46 µM) | 3.12 µg/mL (≈ 2.92 µM) | 3.12 µg/mL (≈ 2.92 µM) | 3.12 µg/mL (≈ 2.92 µM) | – | – | – | – |
| CCCCC/C=C/C=C/[C@@H](O)C/C=C/C=C/C(=O)O[C@@H]1[C@@H](O)[C@H](c2c(O)cc(O)cc2CO)O[C@H](CO)[C@H]1O[C@@H]1O[C@H](COC(=O)c2ccc3c(c2)-c2ccccc2-3)[C@H](O)[C@H](O)[C@H]1O[C@@H]1O[C@H](CO)[C@H](O)[C@H](O)[C@H]1O [Example 28] | 1.56 µg/mL (≈ 1.48 µM) | 0.39 µg/mL (≈ 0.371 µM) | 1.56 µg/mL (≈ 1.48 µM) | 0.39 µg/mL (≈ 0.371 µM) | 0.78 µg/mL (≈ 0.742 µM) | – | – | – | – |
| CCCCC/C=C/C=C/[C@@H](O)C/C=C/C=C/C(=O)O[C@@H]1[C@@H](O)[C@H](c2c(O)cc(O)cc2CO)O[C@H](CO)[C@H]1O[C@@H]1O[C@H](COC(=O)CCC)[C@H](O)[C@H](O)[C@H]1O[C@@H]1O[C@H](CO)[C@H](O)[C@H](O)[C@H]1O [Example 12] | 50 µg/mL (≈ 53 µM) | 50 µg/mL (≈ 53 µM) | 50 µg/mL (≈ 53 µM) | 25 µg/mL (≈ 26.5 µM) | 25 µg/mL (≈ 26.5 µM) | – | – | – | – |
| CCCCC/C=C/C=C/[C@@H](O)C/C=C/C=C/C(=O)O[C@@H]1[C@@H](O)[C@H](c2c(O)cc(O)cc2CO)O[C@H](CO)[C@H]1O[C@@H]1O[C@H](COC(=O)c2ccc(-c3ccc(OCc4ccccc4)cc3)cc2)[C@H](O)[C@H](O)[C@H]1O[C@@H]1O[C@H](CO)[C@H](O)[C@H](O)[C@H]1O [Example 37] | 1.56 µg/mL (≈ 1.35 µM) | 1.56 µg/mL (≈ 1.35 µM) | 1.56 µg/mL (≈ 1.35 µM) | 3.12 µg/mL (≈ 2.69 µM) | 3.12 µg/mL (≈ 2.69 µM) | – | – | – | – |
| CCCCC/C=C/C=C/[C@@H](O)C/C=C/C=C/C(=O)O[C@@H]1[C@@H](O)[C@H](c2c(O)cc(O)cc2CO)O[C@H](CO)[C@H]1O[C@@H]1O[C@H](COC(=O)c2ccc(-c3ccc(OC)cc3)cc2)[C@H](O)[C@H](O)[C@H]1O[C@@H]1O[C@H](CO)[C@H](O)[C@H](O)[C@H]1O [Example 32] | 0.78 µg/mL (≈ 0.72 µM) | 1.56 µg/mL (≈ 1.44 µM) | 0.78 µg/mL (≈ 0.72 µM) | 0.78 µg/mL (≈ 0.72 µM) | 3.12 µg/mL (≈ 2.88 µM) | – | – | – | – |
| CCCCC/C=C/C=C/C(=O)OC[C@H]1O[C@@H](O[C@H]2[C@H](OC(=O)/C=C/C=C/C[C@H](O)/C=C/C=C/CCCCC)[C@@H](O)[C@H](c3c(O)cc(O)cc3CO)O[C@@H]2CO)[C@H](O[C@@H]2O[C@H](CO)[C@H](O)[C@H](O)[C@H]2O)[C@@H](O)[C@H]1O [Example 11] | 1.56 µg/mL (≈ 1.52 µM) | 0.78 µg/mL (≈ 0.762 µM) | 3.12 µg/mL (≈ 3.05 µM) | 1.56 µg/mL (≈ 1.52 µM) | 1.56 µg/mL (≈ 1.52 µM) | – | – | – | – |
| CCCCC/C=C/C=C/[C@@H](O)C/C=C/C=C/C(=O)O[C@@H]1[C@@H](O)[C@H](c2c(O)cc(O)cc2CO)O[C@H](CO)[C@H]1O[C@@H]1O[C@H](COC(=O)c2ccc3c(ccc4ccccc43)c2)[C@H](O)[C@H](O)[C@H]1O[C@@H]1O[C@H](CO)[C@H](O)[C@H](O)[C@H]1O [Example 25] | – | – | – | 0.78 µg/mL (≈ 0.724 µM) | – | 1.56 µg/mL (≈ 1.45 µM) | 0.78 µg/mL (≈ 0.724 µM) | 1.56 µg/mL (≈ 1.45 µM) | 1.56 µg/mL (≈ 1.45 µM) |
